Assays:
Type in all cases: in vivo
[1] = tested on: Johnsongrass (Sorghum halepense, SORHA); assay: Pre-emerge greenhouse herbicide test, phytotoxicity rating; conditions: Sorghum halepense, pre-emergence, 336 h, 14 days after application, rating scale 0-100; for pest or weed control at 125 g/ha: Rate 125 g al/ha; for pest or weed control at 500 g/ha: Rate 500 g al/ha
Summary of the method: (§1)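 Seeds sown in sandy loam one day before track-sprayer application of acetone solutions at 125–1000 g ai/ha (187 l/ha), then surface-watered to incorporate and bottom-watered. Injury scored visually at 14 days on a 0–100 scale (0 no damage, 100 complete death).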

[2] = tested on: ivyleaf morningglory (Ipomoea hederacea, IPOHE); assay: as above; conditions: Ipomoea, pre-emergence, 336 h, 14 days after application, rating scale 0-100; for pest or weed control at 125 g/ha: Rate 125 g al/ha; for pest or weed control at 500 g/ha: Rate 500 g al/ha
Summary of the method: as §1

[3] = tested on: redroot pigweed (Amaranthus retroflexus, AMARE); assay: as above; conditions: Amaranthus retroflexus, pre-emergence, 336 h, 14 days after application, rating scale 0-100; for pest or weed control at 125 g/ha: Rate 125 g al/ha; for pest or weed control at 500 g/ha: Rate 500 g al/ha
Summary of the method: as §1

[4] = tested on: velvetleaf (Abutilon theophrasti, ABUTH); assay: as above; conditions: Abutilon theophrasti, pre-emergence, 336 h, 14 days after application, rating scale 0-100; for pest or weed control at 125 g/ha: Rate 125 g al/ha; for pest or weed control at 500 g/ha: Rate 500 g al/ha
Summary of the method: as §1

[5] = tested on: green foxtail (Setaria viridis, SETVI); assay: as above; conditions: Setaria viridis, pre-emergence, 336 h, 14 days after application, rating scale 0-100; for pest or weed control at 125 g/ha: Rate 125 g al/ha; for pest or weed control at 500 g/ha: Rate 500 g al/ha
Summary of the method: as §1

[6] = tested on: lambsquarters (Chenopodium album, CHEAL); assay: as above; conditions: Chenopodium album, pre-emergence, 336 h, 14 days after application, rating scale 0-100; for pest or weed control at 125 g/ha: Rate 125 g al/ha; for pest or weed control at 500 g/ha: Rate 500 g al/ha
Summary of the method: as §1

[7] = tested on: Johnsongrass (Sorghum halepense, SORHA); assay: Post-emerge greenhouse herbicide test, phytotoxicity rating; conditions: Sorghum halepense, post-emergence, 336 h, 14 days after application, scale 0-100; for pest or weed control at 63 g/ha: rate 63 g ai/ha; for pest or weed control at 500 g/ha: rate 500 g ai/ha
Summary of the method: (§2)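 Plants at the 2-3 leaf stage, sown 8-21 days earlier, were track-sprayed post-emergence with compound in acetone plus 0.25% v/v non-ionic surfactant at 63-1000 g ai/ha (187 l/ha). Damage was rated at 14 days on a 0-100 scale (0 none, 100 all plants dead), for both crop injury and weed control.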

[8] = tested on: ivyleaf morningglory (Ipomoea hederacea, IPOHE); assay: as above; conditions: Ipomoea, post-emergence, 336 h, 14 days after application, scale 0-100; for pest or weed control at 63 g/ha: rate 63 g ai/ha; for pest or weed control at 500 g/ha: rate 500 g ai/ha
Summary of the method: as §2

[9] = tested on: redroot pigweed (Amaranthus retroflexus, AMARE); assay: as above; conditions: Amaranthus retroflexus, post-emergence, 336 h, 14 days after application, scale 0-100; for pest or weed control at 63 g/ha: rate 63 g ai/ha; for pest or weed control at 500 g/ha: rate 500 g ai/ha
Summary of the method: as §2

[10] = tested on: velvetleaf (Abutilon theophrasti, ABUTH); assay: as above; conditions: Abutilon theophrasti, post-emergence, 336 h, 14 days after application, scale 0-100; for pest or weed control at 63 g/ha: rate 63 g ai/ha; for pest or weed control at 500 g/ha: rate 500 g ai/ha
Summary of the method: as §2

[11] = tested on: barnyardgrass (Echinochloa crusgalli, ECHCG); assay: as above; conditions: Echinochloa crus-galli, post-emergence, 336 h, 14 days after application, scale 0-100; for pest or weed control at 63 g/ha: rate 63 g ai/ha; for pest or weed control at 500 g/ha: rate 500 g ai/ha
Summary of the method: as §2

[12] = tested on: green foxtail (Setaria viridis, SETVI); assay: as above; conditions: Setaria viridis, post-emergence, 336 h, 14 days after application, scale 0-100; for pest or weed control at 63 g/ha: rate 63 g ai/ha; for pest or weed control at 500 g/ha: rate 500 g ai/ha
Summary of the method: as §2

[13] = tested on: lambsquarters (Chenopodium album, CHEAL); assay: as above; conditions: Chenopodium album, post-emergence, 336 h, 14 days after application, scale 0-100; for pest or weed control at 63 g/ha: rate 63 g ai/ha; for pest or weed control at 500 g/ha: rate 500 g ai/ha
Summary of the method: as §2

[14] = tested on: large crabgrass (Digitaria sanguinalis, DIGSA); assay: as above; conditions: Digitaria sanguinalis, post-emergence, 336 h, 14 days after application, scale 0-100; for pest or weed control at 63 g/ha: rate 63 g ai/ha; for pest or weed control at 500 g/ha: rate 500 g ai/ha
Summary of the method: as §2

[15] = tested on: sicklepod (Cassia obtusifolia, CASOB); assay: as above; conditions: Senna obtusifolia, post-emergence, 336 h, 14 days after application, scale 0-100; for pest or weed control at 63 g/ha: rate 63 g ai/ha; for pest or weed control at 500 g/ha: rate 500 g ai/ha
Summary of the method: as §2

| SMILES | pest or weed control at 125 g/ha [1] | pest or weed control at 500 g/ha [1] | pest or weed control at 125 g/ha [2] | pest or weed control at 500 g/ha [2] | pest or weed control at 125 g/ha [3] | pest or weed control at 500 g/ha [3] | pest or weed control at 125 g/ha [4] | pest or weed control at 500 g/ha [4] | pest or weed control at 125 g/ha [5] | pest or weed control at 500 g/ha [5] | pest or weed control at 125 g/ha [6] | pest or weed control at 500 g/ha [6] | pest or weed control at 63 g/ha [7] | pest or weed control at 500 g/ha [7] | pest or weed control at 63 g/ha [8] | pest or weed control at 500 g/ha [8] | pest or weed control at 63 g/ha [9] | pest or weed control at 500 g/ha [9] | pest or weed control at 63 g/ha [10] | pest or weed control at 500 g/ha [10] | also measured |
| --- | --- | --- | --- | --- | --- | --- | --- | --- | --- | --- | --- | --- | --- | --- | --- | --- | --- | --- | --- | --- | --- |
| Nn1c(C(F)(F)F)cc(=O)n(-c2cc(Oc3ncccc3[N+](=O)[O-])c(Cl)cc2F)c1=O [Compound 9-1, 1-amino-3-[4-chloro-2-fluoro-5-(3-nitro-2-pyridyloxy)phenyl]-6-trifluoromethyl-1,2,3,4-tetrahydropyrimidine-2,4-dione] | 95% | 99% | 100% | 100% | 100% | 100% | 100% | 100% | 99% | 100% | 100% | 100% | 70% | 99% | 100% | 100% | 100% | 100% | 100% | 100% | pest or weed control at 63 g/ha [11]: 30%; pest or weed control at 500 g/ha [11]: 100%; pest or weed control at 63 g/ha [12]: 20%; pest or weed control at 500 g/ha [12]: 90%; pest or weed control at 63 g/ha [13]: 95%; pest or weed control at 500 g/ha [13]: 100%; pest or weed control at 63 g/ha [14]: 20%; pest or weed control at 500 g/ha [14]: 50%; pest or weed control at 63 g/ha [15]: 30%; pest or weed control at 500 g/ha [15]: 30% |
| Nn1c(C(F)(F)F)cc(=O)n(-c2cc(Oc3ccc(Br)cn3)c(Cl)cc2F)c1=O [Compound 9-2, 1-Amino-3-[4-chloro-2-fluoro-5-(5-bromo-2-pyridyloxy)phenyl]-6-trifluoromethyl-1,2,3,4-tetrahydropyrimidine-2,4-dione] | 60% | 90% | 0% | 100% | 80% | 100% | 30% | 100% | 80% | 100% | 100% | 100% | 10% | 70% | 100% | 80% | 100% | 100% | 100% | 100% | pest or weed control at 63 g/ha [11]: 10%; pest or weed control at 500 g/ha [11]: 80%; pest or weed control at 63 g/ha [12]: 10%; pest or weed control at 500 g/ha [12]: 60%; pest or weed control at 63 g/ha [13]: 100%; pest or weed control at 500 g/ha [13]: 95%; pest or weed control at 63 g/ha [14]: 0%; pest or weed control at 500 g/ha [14]: 30%; pest or weed control at 63 g/ha [15]: 30%; pest or weed control at 500 g/ha [15]: 95% |
| Nn1c(C(F)(F)F)cc(=O)n(-c2cc(Oc3ccc(Cl)cn3)c(Cl)cc2F)c1=O [Compound 9-3, 1-Amino-3-[4-chloro-2-fluoro-5-(5-chloro-2-pyridyloxy)phenyl]-6-trifluoromethyl-1,2,3,4-tetrahydropyrimidine-2,4-dione] | 70% | 99% | 40% | 100% | 100% | 100% | 100% | 100% | 100% | 100% | 100% | 100% | 10% | 90% | 100% | 100% | 100% | 100% | 100% | 100% | pest or weed control at 63 g/ha [11]: 0%; pest or weed control at 500 g/ha [11]: 90%; pest or weed control at 63 g/ha [12]: 20%; pest or weed control at 500 g/ha [12]: 95%; pest or weed control at 63 g/ha [13]: 95%; pest or weed control at 500 g/ha [13]: 100%; pest or weed control at 63 g/ha [14]: 30%; pest or weed control at 500 g/ha [14]: 95%; pest or weed control at 63 g/ha [15]: 20%; pest or weed control at 500 g/ha [15]: 95% |
